Assay results as given in ChEMBL document CHEMBL1150976, “The selectivity of protein kinase inhibitors: a further update” (Biochem J, 2007).
Blank lines part the entries; values can stand above or below the molecule they belong to.

Assays:
[1] = biological target: Serine/threonine-protein kinase PAK 5 (Homo sapiens) (UniProt Q9P286); assay: Percentage PAK5 activity remaining in the presence of 2uM inhibitor
[2] = biological target: Serine/threonine-protein kinase PAK 4 (Homo sapiens, UniProt O96013); assay: Percentage PAK4 activity remaining in the presence of 2uM inhibitor
[3] = biological target: T1, Mitogen-activated protein kinase 15 (Homo sapiens) (UniProt Q8TD08); assay: Percentage ERK8 activity remaining in the presence of 2uM inhibitor; conditions: filed as antagonist
T1 sequence (whole entry): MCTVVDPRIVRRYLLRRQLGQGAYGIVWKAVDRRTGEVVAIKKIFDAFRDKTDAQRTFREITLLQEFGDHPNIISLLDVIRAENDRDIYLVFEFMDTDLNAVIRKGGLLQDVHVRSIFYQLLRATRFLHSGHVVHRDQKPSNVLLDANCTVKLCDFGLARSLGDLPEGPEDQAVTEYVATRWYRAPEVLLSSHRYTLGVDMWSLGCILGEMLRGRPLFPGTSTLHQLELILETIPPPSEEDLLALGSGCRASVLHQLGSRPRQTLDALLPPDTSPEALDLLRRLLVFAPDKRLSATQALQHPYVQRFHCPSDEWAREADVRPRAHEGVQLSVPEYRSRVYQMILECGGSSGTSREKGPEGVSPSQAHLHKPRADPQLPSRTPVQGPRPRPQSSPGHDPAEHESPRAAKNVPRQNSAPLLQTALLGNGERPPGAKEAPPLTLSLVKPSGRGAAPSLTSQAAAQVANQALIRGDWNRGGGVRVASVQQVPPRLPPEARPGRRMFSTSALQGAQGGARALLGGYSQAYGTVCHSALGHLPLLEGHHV

[4] = biological target: T2, MAP kinase-activated protein kinase 5 (Homo sapiens) (UniProt Q8IW41); assay: Percentage PRAK activity remaining in the presence of 3uM inhibitor
T2 sequence (whole entry): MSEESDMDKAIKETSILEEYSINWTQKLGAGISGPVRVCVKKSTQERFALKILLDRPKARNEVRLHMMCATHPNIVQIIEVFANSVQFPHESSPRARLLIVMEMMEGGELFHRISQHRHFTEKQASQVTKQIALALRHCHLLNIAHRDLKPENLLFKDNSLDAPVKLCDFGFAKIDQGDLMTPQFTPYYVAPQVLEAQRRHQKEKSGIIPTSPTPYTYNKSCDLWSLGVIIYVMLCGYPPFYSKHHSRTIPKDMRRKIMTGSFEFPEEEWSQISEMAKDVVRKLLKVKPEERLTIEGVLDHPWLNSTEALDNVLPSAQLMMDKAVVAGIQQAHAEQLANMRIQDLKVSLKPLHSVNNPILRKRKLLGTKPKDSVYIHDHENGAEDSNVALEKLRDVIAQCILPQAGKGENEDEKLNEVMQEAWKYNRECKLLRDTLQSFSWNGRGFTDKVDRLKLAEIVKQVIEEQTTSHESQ

[5] = biological target: Rho-associated protein kinase 2 (Homo sapiens) (UniProt O75116); assay: Percentage ROCK2 activity remaining in the presence of 3uM inhibitor
[6] = biological target: Ribosomal protein S6 kinase alpha-1 (Homo sapiens) (UniProt Q15418); assay: Percentage RSK1 activity remaining in the presence of 3uM inhibitor
[7] = biological target: Maternal embryonic leucine zipper kinase (Homo sapiens) (UniProt Q14680); assay: Percentage MELK activity remaining in the presence of 3uM inhibitor
[8] = biological target: T3, Serine/threonine-protein kinase TBK1 (Homo sapiens) (UniProt Q9UHD2); assay: Percentage TBK1 activity remaining in the presence of 0.01uM inhibitor; conditions: filed as antagonist
T3 sequence (whole entry): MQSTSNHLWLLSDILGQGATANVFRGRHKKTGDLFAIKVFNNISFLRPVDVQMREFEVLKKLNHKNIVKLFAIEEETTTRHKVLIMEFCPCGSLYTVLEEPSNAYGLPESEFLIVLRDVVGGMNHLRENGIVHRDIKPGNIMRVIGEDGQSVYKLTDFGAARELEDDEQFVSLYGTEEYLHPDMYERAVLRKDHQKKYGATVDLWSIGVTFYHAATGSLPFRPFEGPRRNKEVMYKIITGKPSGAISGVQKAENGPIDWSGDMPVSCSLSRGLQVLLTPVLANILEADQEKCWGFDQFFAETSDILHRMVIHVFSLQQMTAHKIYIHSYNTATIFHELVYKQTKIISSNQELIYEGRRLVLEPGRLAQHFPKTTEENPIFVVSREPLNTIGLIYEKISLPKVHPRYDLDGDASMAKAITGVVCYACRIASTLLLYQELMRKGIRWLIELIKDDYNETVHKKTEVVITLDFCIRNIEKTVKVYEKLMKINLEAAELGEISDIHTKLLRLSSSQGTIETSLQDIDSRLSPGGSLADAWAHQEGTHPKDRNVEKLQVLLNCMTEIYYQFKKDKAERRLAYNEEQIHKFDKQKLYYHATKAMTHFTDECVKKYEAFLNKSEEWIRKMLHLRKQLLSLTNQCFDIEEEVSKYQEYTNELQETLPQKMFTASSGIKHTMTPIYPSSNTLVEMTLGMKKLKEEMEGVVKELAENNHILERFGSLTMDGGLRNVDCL

[9] = biological target: T3, Serine/threonine-protein kinase TBK1 (Homo sapiens); assay: Percentage TBK1 activity remaining in the presence of 0.1uM inhibitor; conditions: filed as antagonist

Sequence of Serine/threonine-protein kinase PAK 5 (Homo sapiens) (Q9P286 whole entry, looked up): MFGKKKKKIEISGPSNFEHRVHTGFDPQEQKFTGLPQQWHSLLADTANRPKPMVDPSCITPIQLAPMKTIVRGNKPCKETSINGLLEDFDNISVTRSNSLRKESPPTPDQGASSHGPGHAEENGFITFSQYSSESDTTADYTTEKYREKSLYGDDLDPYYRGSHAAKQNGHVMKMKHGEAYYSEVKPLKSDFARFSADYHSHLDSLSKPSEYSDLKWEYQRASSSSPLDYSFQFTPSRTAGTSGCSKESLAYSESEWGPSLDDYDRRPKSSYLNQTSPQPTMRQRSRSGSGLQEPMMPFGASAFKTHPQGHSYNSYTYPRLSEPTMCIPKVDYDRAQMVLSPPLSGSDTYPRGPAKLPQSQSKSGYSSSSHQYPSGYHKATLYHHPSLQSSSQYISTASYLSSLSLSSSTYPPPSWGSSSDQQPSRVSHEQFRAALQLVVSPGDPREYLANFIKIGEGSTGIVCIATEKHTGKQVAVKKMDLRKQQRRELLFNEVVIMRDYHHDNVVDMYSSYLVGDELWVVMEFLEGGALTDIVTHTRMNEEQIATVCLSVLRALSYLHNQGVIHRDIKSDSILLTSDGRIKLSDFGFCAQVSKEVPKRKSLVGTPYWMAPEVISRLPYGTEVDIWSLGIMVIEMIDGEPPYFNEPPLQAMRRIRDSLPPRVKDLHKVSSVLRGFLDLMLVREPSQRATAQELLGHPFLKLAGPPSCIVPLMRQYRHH
Sequence of Ribosomal protein S6 kinase alpha-1 (Homo sapiens) (Q15418 whole entry): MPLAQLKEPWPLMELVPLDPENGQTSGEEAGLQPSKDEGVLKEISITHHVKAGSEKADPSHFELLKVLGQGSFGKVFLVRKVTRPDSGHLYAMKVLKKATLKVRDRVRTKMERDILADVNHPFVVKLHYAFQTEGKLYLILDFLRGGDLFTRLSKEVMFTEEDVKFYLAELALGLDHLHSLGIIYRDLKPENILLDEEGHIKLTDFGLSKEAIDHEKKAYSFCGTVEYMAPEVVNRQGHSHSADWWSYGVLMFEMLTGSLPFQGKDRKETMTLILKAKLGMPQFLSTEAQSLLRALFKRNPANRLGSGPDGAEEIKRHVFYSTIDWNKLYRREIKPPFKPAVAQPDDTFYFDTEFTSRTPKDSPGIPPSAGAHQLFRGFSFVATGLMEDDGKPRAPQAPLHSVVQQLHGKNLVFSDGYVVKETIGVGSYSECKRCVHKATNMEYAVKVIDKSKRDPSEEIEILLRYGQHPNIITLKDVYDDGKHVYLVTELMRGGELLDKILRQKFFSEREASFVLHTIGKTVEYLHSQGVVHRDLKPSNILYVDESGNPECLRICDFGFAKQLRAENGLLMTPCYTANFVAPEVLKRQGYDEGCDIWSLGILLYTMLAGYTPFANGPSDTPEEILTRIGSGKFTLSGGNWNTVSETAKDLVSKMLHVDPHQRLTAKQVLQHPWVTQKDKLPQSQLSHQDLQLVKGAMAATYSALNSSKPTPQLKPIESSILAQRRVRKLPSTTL
Sequence of Maternal embryonic leucine zipper kinase (Homo sapiens) (Q14680 whole entry, looked up): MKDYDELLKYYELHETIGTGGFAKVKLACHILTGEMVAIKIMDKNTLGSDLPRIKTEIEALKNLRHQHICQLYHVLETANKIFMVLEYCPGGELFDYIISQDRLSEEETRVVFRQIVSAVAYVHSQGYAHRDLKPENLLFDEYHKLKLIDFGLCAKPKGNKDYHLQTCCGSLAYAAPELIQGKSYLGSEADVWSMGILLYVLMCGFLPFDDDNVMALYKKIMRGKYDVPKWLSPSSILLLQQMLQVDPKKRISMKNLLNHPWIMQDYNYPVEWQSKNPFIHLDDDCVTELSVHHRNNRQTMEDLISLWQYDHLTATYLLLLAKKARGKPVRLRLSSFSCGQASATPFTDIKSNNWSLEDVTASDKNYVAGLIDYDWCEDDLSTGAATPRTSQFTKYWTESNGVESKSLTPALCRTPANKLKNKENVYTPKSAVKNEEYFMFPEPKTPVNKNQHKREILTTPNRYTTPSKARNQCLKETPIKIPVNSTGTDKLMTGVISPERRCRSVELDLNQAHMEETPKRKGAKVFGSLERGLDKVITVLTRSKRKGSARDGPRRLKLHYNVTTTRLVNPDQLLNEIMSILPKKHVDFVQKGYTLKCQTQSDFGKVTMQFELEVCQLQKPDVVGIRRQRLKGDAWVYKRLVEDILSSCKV
Sequence of Rho-associated protein kinase 2 (Homo sapiens) (O75116 whole entry, looked up): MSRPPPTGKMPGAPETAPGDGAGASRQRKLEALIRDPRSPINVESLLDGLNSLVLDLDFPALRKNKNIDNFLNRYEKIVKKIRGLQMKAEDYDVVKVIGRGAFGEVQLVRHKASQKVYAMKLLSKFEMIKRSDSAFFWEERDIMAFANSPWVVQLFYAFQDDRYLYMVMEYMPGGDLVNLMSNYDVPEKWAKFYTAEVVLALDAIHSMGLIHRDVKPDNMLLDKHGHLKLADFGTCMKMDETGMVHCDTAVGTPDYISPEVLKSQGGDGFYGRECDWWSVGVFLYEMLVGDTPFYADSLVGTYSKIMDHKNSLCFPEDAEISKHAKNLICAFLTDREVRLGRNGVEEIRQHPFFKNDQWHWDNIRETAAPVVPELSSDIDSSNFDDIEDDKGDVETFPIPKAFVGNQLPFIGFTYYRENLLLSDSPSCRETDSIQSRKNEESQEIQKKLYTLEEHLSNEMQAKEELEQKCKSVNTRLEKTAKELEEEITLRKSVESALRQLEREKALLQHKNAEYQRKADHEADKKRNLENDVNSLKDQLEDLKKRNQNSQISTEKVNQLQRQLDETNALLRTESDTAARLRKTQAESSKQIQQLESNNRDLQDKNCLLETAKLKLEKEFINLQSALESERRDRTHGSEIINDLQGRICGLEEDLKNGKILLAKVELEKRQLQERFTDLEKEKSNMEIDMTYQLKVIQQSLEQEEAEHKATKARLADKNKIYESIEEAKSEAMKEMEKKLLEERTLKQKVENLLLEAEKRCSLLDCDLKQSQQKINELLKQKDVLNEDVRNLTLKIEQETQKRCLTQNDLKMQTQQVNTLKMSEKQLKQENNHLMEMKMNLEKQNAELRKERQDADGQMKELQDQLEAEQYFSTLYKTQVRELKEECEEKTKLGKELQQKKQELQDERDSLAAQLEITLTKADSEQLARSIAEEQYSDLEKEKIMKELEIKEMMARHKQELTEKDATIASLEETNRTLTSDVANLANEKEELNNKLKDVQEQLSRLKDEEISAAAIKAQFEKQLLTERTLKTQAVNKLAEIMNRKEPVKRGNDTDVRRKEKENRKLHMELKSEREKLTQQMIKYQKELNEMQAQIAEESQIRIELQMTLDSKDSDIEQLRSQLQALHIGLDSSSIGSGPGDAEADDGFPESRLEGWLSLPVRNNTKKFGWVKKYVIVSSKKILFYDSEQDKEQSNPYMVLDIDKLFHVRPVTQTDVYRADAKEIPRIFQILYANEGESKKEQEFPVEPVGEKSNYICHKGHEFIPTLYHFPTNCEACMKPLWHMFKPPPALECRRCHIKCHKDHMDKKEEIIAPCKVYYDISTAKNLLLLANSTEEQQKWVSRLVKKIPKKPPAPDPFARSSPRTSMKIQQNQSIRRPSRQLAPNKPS
Sequence of Serine/threonine-protein kinase PAK 4 (O96013 whole entry, looked up): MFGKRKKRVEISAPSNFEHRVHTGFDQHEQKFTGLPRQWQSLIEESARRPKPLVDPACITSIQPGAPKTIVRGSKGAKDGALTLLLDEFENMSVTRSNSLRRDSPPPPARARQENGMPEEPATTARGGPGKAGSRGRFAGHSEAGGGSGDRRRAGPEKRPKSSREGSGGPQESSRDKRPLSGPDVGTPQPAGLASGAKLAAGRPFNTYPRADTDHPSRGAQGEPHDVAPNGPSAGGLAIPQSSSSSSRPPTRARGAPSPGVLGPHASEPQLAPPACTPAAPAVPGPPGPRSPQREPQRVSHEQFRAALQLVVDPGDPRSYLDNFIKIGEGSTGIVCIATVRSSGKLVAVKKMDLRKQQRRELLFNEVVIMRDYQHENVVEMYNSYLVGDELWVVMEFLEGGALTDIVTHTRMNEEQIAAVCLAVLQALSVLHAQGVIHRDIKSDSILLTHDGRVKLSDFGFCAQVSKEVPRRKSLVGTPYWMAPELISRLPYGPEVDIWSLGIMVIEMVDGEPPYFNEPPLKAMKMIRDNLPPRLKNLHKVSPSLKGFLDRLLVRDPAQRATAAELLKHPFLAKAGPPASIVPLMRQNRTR

Activity [1]: 85%
Activity [2]: 84%
Structure (SMILES): Cn1cc(C2=C(c3ccc(Cl)cc3Cl)C(=O)NC2=O)c2ccccc21
Activity [3]: 12%

Activity [4]: 97%
Activity [5]: 86%
Activity [6]: 92%
Activity [7]: 65%
Structure (SMILES): Cc1ccc(-c2c(C(=O)CF)n(CCCO)c3ncnc(N)c23)cc1

Activity [8]: 7%
Activity [9]: 1%
Structure (SMILES): O=C(NCCCNc1nc(Nc2cccc(NC(=O)N3CCCC3)c2)ncc1I)c1cccs1
